Reference: patent US20260256780A1, “COMPOSITIONS FOR INDUCING RAS GTP HYDROLYSIS AND USES THEREOF” (Revolution Medicines, Inc., priority 2023, published 2026)

Assays:
[1] = system: KRASG12R-mutant cell line PSN1; assay: Cell viability (CellTiter-Glo) and HSA synergy model, PSN1; type: cell-based; details: in combination with pan KRAS-IN-1, 120 hours
Method: (§1) Cell lines were seeded in complete growth media (RPMI-1640 or DMEM with 10% Fetal Bovine Serum and 1% Penicillin/Streptomycin) and allowed to adhere overnight in a 37° C. and 5% CO2 humidified incubator. The following day compounds were added at the indicate concentrations and incubated for a further 5 days. The number of viable cells in each well were assessed with Promega CellTiter-Glo® reagent according to manufacturer instructions. The cell viability was normalized to DMSO controls. The cell viability as a function of compound concentrations were plotted using GraphPad Prism analyzed using the Combenefit software package (Di Veroli G Y, Fornari C, Wang D, Mollard S, Bramhall J L, Richards F M, Jodrell D I. Combenefit: an interactive platform for the analysis and visualization of drug combinations. Bioinformatics. 2016 Sep. 15; 32(18):2866-8. doi: 10.1093/bioinformatics/btw230) to assess the synergy according to the highest single agent (HSA) synergy model (Borisy A A, Elliott P J, Hurst N W, Lee M S, Lehar J, Price E R, Serbedzija G, Zimmermann G R, Foley M A, Stockwell B R, Keith C T. Systematic discovery of multicomponent therapeutics. Proc Natl Acad Sci USA. 2003 Jun. 24; 100(13):7977-82. doi: 10.1073/pnas.1337088100)).
The KRASG12R-mutant cell line PSN1 was grown in RPMI-1640 supplemented with 10% fetal bovine serum and 1% penicillin/streptomycin. […]

[2] = system: KRASG12D-mutant cell line AsPC-1; assay: Cell viability (CellTiter-Glo) and HSA synergy model, AsPC-1; type: cell-based
Method: as §1
The KRASG12D-mutant cell line AsPC-1 was grown in RPMI-1640 supplemented with 10% fetal bovine serum and 1% penicillin/streptomycin. 2500 cells were seeded in 0.15 mL in the wells of a tissue culture-treated 96-well plate. After overnight incubation, compounds were added at the indicated concentration and incubated for a further 120 hours. Cell viability was assessed with Promega CellTiter Glo reagent, and the relative cell viability was plotted as a function of the concentration of (FIG. 4A and FIG. 4G) MRTX1133 or (FIG. 4D) MRTX-282 in combination with the indicated concentration to Compound A (FIG. 4A and FIG. 4D) or Compound D (FIG. 4G), both strong hydrolyzers. The synergy between (FIG. 4B and FIG. 4H) MRTX1133 or (FIG. 4E) MRTX-282 and Compound A (FIGS. 4B and 4E) or Compound D (FIG. 4H) was assessed by the HAS synergy model. Representative points of synergistic drug combination between (FIG. 4C and FIG. 4I) MRTX1133 or (FIG. 4F) MRTX-282 and Compound A (FIG. 4C and FIG. 4F) or Compound D (FIG. 4I) are highlighted.
The KRASG12D-mutant cell line AsPC-1 was grown in RPMI-1640 supplemented with 10% fetal bovine serum and 1% penicillin/streptomycin. 2000 cells were seeded in 0.15 mL in the wells of a tissue culture-treated 96-well plate. After overnight incubation, compounds were added at the indicated concentration and incubated for a further 120 hours. Cell viability was assessed with Promega CellTiter Glo reagent, and the relative cell viability was plotted as a function of the concentration of pan KRAS-IN-1 in combination with the indicated concentration to Compound D (FIG. 11A) or Compound C (FIG. 11D), both strong hydrolyzers. The synergy between pan KRAS-IN-1 and Compound D (FIG. 11B) or Compound C (FIG. 11E) was assessed by the HAS synergy model. Representative points of synergistic drug combination between pan KRAS-IN-1 and Compound D (FIG. 11C) or Compound C (FIG. 11F).

[3] = system: KRASG12C-mutant cell line H358; assay: Cell viability (CellTiter-Glo) and HSA synergy model, H358; type: cell-based; details: in combination with pan KRAS-IN-1, 120 hours
Method: as §1
The KRASG12C-mutant cell line H358 was grown in RPMI-1640 supplemented with 10% fetal bovine serum and 1% penicillin/streptomycin. […]

[4] = system: KRASG12V-mutant cell line Capan-2; assay: Cell viability (CellTiter-Glo) and HSA synergy model, Capan-2; type: cell-based; details: in combination with pan KRAS-IN-1, 120 hours
Method: as §1
The KRASG12V-mutant cell line Capan-2 was grown in RPMI-1640 supplemented with 10% fetal bovine serum and 1% penicillin/streptomycin. […]

[5] = system: KRASG12C-mutant cell line MiaPaCa2; assay: Cell viability (CellTiter-Glo) and HSA synergy model, MiaPaCa2; type: cell-based
Method: as §1
The KRASG12C-mutant cell line MiaPaCa2 was grown in DMEM supplemented with 10% fetal bovine serum and 1% penicillin/streptomycin. […]

[6] = system: KRASG12D-mutant cell line HPAC; assay: Cell viability (CellTiter-Glo) and HSA synergy model, HPAC; type: cell-based
Method: as §1
The KRASG12D-mutant cell line HPAC was grown in RPMI-16 40 supplemented with 10% fetal bovine serum and 1% penicillin/streptomycin. […]

[7] = system: KRASG12D-mutant cell line Gp2D; assay: Cell viability (CellTiter-Glo) and HSA synergy model, Gp2D; type: cell-based
Method: as §1
(§2) The KRASG12D-mutant cell line Gp2D was grown in RPMI-16 40 supplemented with 10% fetal bovine serum and 1% penicillin/streptomycin. […]

KRAS^G12C = molecular target: T1, KRAS^G12C (Homo sapiens, UniProt P01116, G12C); assay: Covalent modification (cross-linking) of KRAS^G12C by sotorasib in MiaPaCa2 cells, immunoblot; type: cell-based
T1 construct: endogenous in cells; host or cells: MiaPaCa2
Method: The KRASG12C-mutant cell line MiaPaCa2 was grown in DMEM supplemented with 10% fetal bovine serum and 1% penicillin/streptomycin. 2500 cells were seeded in 0.15 mL in the wells of a tissue culture-treated 96-well plate. After overnight incubation, compounds were added at the indicated concentration and incubated for a further 120 hours. […] The density of the KRAS^G12C and KRAS^G12C-Soto. gel bands can be quantified, plotted as a function of time, and fit to a single-phase exponential model to get the rate constant for KRAS^G12C target engagement.

[8] = system: RAS wild-type cell line, HaCat; assay: Cell viability (CellTiter-Glo) and HSA synergy model, HaCat control; type: cell-based, human
Method: as §1, §2

[9] = AsPC-1, in combination with pan KRAS-IN-1, 120 hours
[10] = in combination with MRTX1133, 120 hours
[11] = in combination with MRTX-282, 120 hours
[12] = AsPC-1, in combination with MRTX1133, 120 hours

Row | amount of covalently-modified KRAS^G12C (KRAS^G12C-Soto.) (KRAS^G12C; MiaPaca-2 cells, sotorasib in combination with 1 or 10 μM of Compound A) | rate of covalent engagement of KRAS^G12C (rate constant for target engagement) (KRAS^G12C; combination of sotorasib and compound A compared with sotorasib alone) | Structure (SMILES) | synergy on cell viability (HSA synergy model) [1] | synergy on cell viability (HSA synergy model) [2, 9] | synergy on cell viability (HSA synergy model) [3] | synergy on cell viability (HSA synergy model) [4] | synergy on cell viability (HSA synergy model) ([5]; MiaPaCa2, in combination with AMG510, 120 hours) | synergy on cell viability (HSA synergy model) ([5]; MiaPaCa2, in combination with MRTX849, 120 hours) | synergy on cell viability (HSA synergy model) [6, 10] | synergy on cell viability (HSA synergy model) [6, 11] | synergy on cell viability (HSA synergy model) [7, 10] | synergy on cell viability (HSA synergy model) [7, 11] | synergy on cell viability (HSA synergy model) [2, 12] | synergy on cell viability (HSA synergy model) ([2]; AsPC-1, in combination with MRTX-282, 120 hours) | cross-linking efficiency of sotorasib (KRAS^G12C; MiaPaCa2 cells, 1 μM sotorasib in combination with 1 μM or 10 μM Compound A vs sotorasib alone) | synergy on cell viability (HSA synergy model) ([8]; in combination with MRTX1133) | synergy on cell viability (HSA synergy model) ([8]; in combination with MRTX-282)
1 | – | – | CCn1c(-c2cc(N3CCN(C)CC3)cnc2[C@H](C)OC)c2c3cc(ccc31)CCCC[C@H](NC(=O)[C@H]1C[C@@H]1C)C(=O)N1CCC[C@H](N1)C(=O)OCC(C)(C)C2 (atropisomer, axis not shown) [compound 3] | synergistic | synergistic | synergistic | synergistic | – | – | – | – | – | – | – | – | – | – | –
2 | increased at each time point | more rapid | CCn1c(-c2cccnc2[C@H](C)OC)c2c3cc(ccc31)[C@@H]1C[C@H]1CC[C@H](NC(=O)[C@H]1[C@H](C)[C@@H]1C)C(=O)N1CCC[C@H](N1)C(=O)OCC(C)(C)C2 (atropisomer, axis not shown) [compound 1] | – | – | – | – | synergistic | synergistic | synergistic | synergistic | synergistic | synergistic | synergistic | synergistic | increases in a concentration dependent manner | – | –
3 | – | – | CCn1c(-c2cc(N3CCN(C)CC3)cnc2[C@H](C)OC)c2c3cc(ccc31)[C@@H]1C[C@H]1CC[C@H](NC(=O)[C@H]1[C@H](C)[C@@H]1C)C(=O)N1CCC[C@H](N1)C(=O)OCC(C)(C)C2 (atropisomer, axis not shown) [compound 6] | synergistic | synergistic | synergistic | synergistic | – | – | – | – | – | – | synergistic | – | – | no synergy | no synergy
